The term TGI denotes the concentration at which net growth stops. A higher TGI goes with less potent growth arrest. One may read the GI50 as the concentration that inhibits growth by half.

Among the test systems are 786-0 renal; HOP-92 NSCLC; MALME-3M melanoma; HCT-15 colon; TK-10 renal; U251 CNS; SF-268 CNS; BT-549 breast; MOLT-4 leukemia; OVCAR-5 ovarian.
Experiment in all cases: DTP human tumour cell line panel, 48 h

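Following 48 hours of exposure in 96-well plates, responses at five concentrations were used to interpolate endpoints linearly. The concentration for 50% growth inhibition is given as GI50. TGI marks complete inhibition of growth.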 Some results are limits rather than exact numbers.

Turning to `CC(=O)NC1=C(Sc2ccc(Cl)cc2)C(=O)c2ccccc2C1=O`, the TGI is 4.16 µM in the test on 786-0 renal; 5.67 µM in the test with HOP-92 NSCLC; 8 µM with MALME-3M melanoma; 19.1 µM in the test on HCT-15 colon; 13.5 µM in the test with TK-10 renal; 14.9 µM with U251 CNS. Further, the TGI in the test with SF-268 CNS was 8.41 µM; in the test on BT-549 breast, 18 µM; in the test with MOLT-4 leukemia it was 1.7 µM; in the test on OVCAR-5 ovarian, 23.9 µM.

On to `CC(OC(=O)N(N(CCCl)S(C)(=O)=O)S(C)(=O)=O)c1ccc([N+](=O)[O-])cc1` (stereo unspecified), for which the GI50 in the test on 786-0 renal was 44700 nM; with HOP-92 NSCLC it was over 100000 nM; in the test on MALME-3M melanoma, 41500 nM; with HCT-15 colon, over 100000 nM; with TK-10 renal, over 66200 nM; in the test on U251 CNS, 42500 nM. The GI50 is over 100000 nM in the test with SF-268 CNS, 33.8 µM in the test with BT-549 breast, 43100 nM with MOLT-4 leukemia and over 100000 nM in the test with OVCAR-5 ovarian. The TGI in the test with 786-0 renal, in the test on HOP-92 NSCLC, in the test on MALME-3M melanoma, in the test with HCT-15 colon, in the test with TK-10 renal and in the test with U251 CNS was over 100 µM in each case. Besides, the TGI with SF-268 CNS, in the test on BT-549 breast, in the test on MOLT-4 leukemia and in the test with OVCAR-5 ovarian was over 100 µM each time.

In the case of `COc1ccc2nccc(/C=C/c3ccnc4ccc(OC)cc34)c2c1`, the GI50 in the test with 786-0 renal is over 100000 nM; in the test on HOP-92 NSCLC, 8110 nM; in the test on MALME-3M melanoma, 22100 nM; in the test with HCT-15 colon, over 62800 nM; in the test on TK-10 renal it was over 45200 nM; in the test with U251 CNS, over 100000 nM. Also, the GI50 with SF-268 CNS is over 91600 nM; in the test on BT-549 breast, over 63.4 µM; in the test with MOLT-4 leukemia, over 55100 nM; in the test with OVCAR-5 ovarian, over 82200 nM. In addition, the TGI with 786-0 renal is over 100 µM; with HOP-92 NSCLC, over 56.9 µM; in the test on MALME-3M melanoma, 48.1 µM; in the test on HCT-15 colon, over 100 µM; in the test on TK-10 renal, over 63.4 µM; in the test on U251 CNS it was over 100 µM. For the same compound, the TGI in the test with SF-268 CNS, in the test on BT-549 breast, in the test on MOLT-4 leukemia and with OVCAR-5 ovarian was over 100 µM throughout.

In the case of `Oc1c(CNCCNCc2cc(Cl)cc(Cc3ccccc3)c2O)cc(Cl)cc1Cc1ccccc1`, the GI50 is 375 nM with 786-0 renal; 2680 nM with HOP-92 NSCLC; 600 nM in the test with MALME-3M melanoma; 139 nM in the test on HCT-15 colon; 228 nM in the test with TK-10 renal; 297 nM in the test with U251 CNS. In addition, the GI50 in the test on SF-268 CNS was 224 nM; in the test on BT-549 breast, 4.26 µM; in the test on MOLT-4 leukemia, 342 nM; with OVCAR-5 ovarian, 1200 nM. The TGI was 10.4 µM with 786-0 renal; 23.9 µM with HOP-92 NSCLC; 7.6 µM with MALME-3M melanoma; 14.9 µM in the test on HCT-15 colon; over 100 µM with TK-10 renal; 14.4 µM in the test on U251 CNS. In addition, the TGI with SF-268 CNS is over 100 µM; with BT-549 breast it was 28 µM; with MOLT-4 leukemia, over 100 µM; in the test on OVCAR-5 ovarian, over 100 µM.

For the compound `FC(F)(F)c1[nH]ncc1-c1nc2ccc3[nH]ncc3c2c2c1CCCC2`, the GI50 in the test with 786-0 renal was 1550 nM; in the test with HOP-92 NSCLC, 1210 nM; with MALME-3M melanoma it was 927 nM; in the test on HCT-15 colon, 2280 nM; in the test with TK-10 renal, 1240 nM; in the test with U251 CNS it was 2560 nM. In addition, the GI50 in the test with SF-268 CNS was 1730 nM; in the test on BT-549 breast, 1.21 µM; in the test on MOLT-4 leukemia, 1290 nM; in the test with OVCAR-5 ovarian, 2510 nM. The TGI with 786-0 renal amounted to 4.08 µM; with HOP-92 NSCLC, 3.5 µM; in the test on MALME-3M melanoma, 3.82 µM; with HCT-15 colon, 10.1 µM; in the test on TK-10 renal, 8.27 µM; with U251 CNS, 7.5 µM. Also, the TGI is 4.72 µM in the test with SF-268 CNS, 2.66 µM in the test on BT-549 breast, 5.29 µM with MOLT-4 leukemia and 13.1 µM with OVCAR-5 ovarian.

In the case of `Cc1cc2c(cc1C)[n+](Cc1ccc3ccccc3n1)cn2Cc1ccc2ccccc2n1`, the GI50 in the test on 786-0 renal was 1540 nM; in the test with HOP-92 NSCLC, 484 nM; in the test on MALME-3M melanoma it was 783 nM; with HCT-15 colon, 3040 nM; with TK-10 renal it was 1380 nM; in the test on U251 CNS, 926 nM. For the same compound, the GI50 in the test on SF-268 CNS is 1270 nM; with BT-549 breast, 1.32 µM; in the test on MOLT-4 leukemia, 1460 nM; with OVCAR-5 ovarian, 1300 nM. In addition, the TGI in the test on 786-0 renal is 3.03 µM; in the test with HOP-92 NSCLC it was 2 µM; in the test on MALME-3M melanoma, 2.56 µM; in the test with HCT-15 colon, 11.4 µM; in the test on TK-10 renal, 2.74 µM; in the test on U251 CNS it was 2.2 µM. The TGI turned out to be 3.02 µM with SF-268 CNS, 3.2 µM in the test with BT-549 breast, 5.15 µM with MOLT-4 leukemia and 6.89 µM in the test on OVCAR-5 ovarian.

For the compound `Cc1cc2c(=O)[nH]c(N)nc2nc1C`, the TGI with 786-0 renal, with HOP-92 NSCLC, with MALME-3M melanoma, in the test on HCT-15 colon, in the test on TK-10 renal and in the test on U251 CNS was over 100 µM throughout. Moreover, the TGI in the test on SF-268 CNS, in the test with BT-549 breast and with OVCAR-5 ovarian was over 100 µM each time.

Turning to `C#CC(=O)OCC#CCOC(=O)C#C`, the TGI with 786-0 renal was found to be 31.4 µM; with HOP-92 NSCLC, 34.8 µM; in the test on MALME-3M melanoma, 38 µM; in the test with HCT-15 colon, 36.5 µM; with TK-10 renal, 37.9 µM; in the test on U251 CNS it was 35.6 µM. In addition, the concentration for total growth inhibition (TGI) with SF-268 CNS was over 100 µM; in the test on BT-549 breast it was 36.6 µM.

In the case of `CCc1ncnc2cc(OCC3CO3)c(OC)cc12` (stereo unspecified), the TGI with 786-0 renal is 20.7 µM; in the test on HOP-92 NSCLC, 26.7 µM; in the test on MALME-3M melanoma, 42 µM; in the test on HCT-15 colon it was 34.9 µM; in the test on TK-10 renal, 69.5 µM; in the test with U251 CNS, over 100 µM. In addition, the TGI with SF-268 CNS was over 100 µM; in the test with BT-549 breast it was 15.1 µM; with OVCAR-5 ovarian it was over 100 µM.
